Laboratory results as given in ChEMBL document CHEMBL1147180, “Quantitative structure-selectivity relationship for M2 selectivity between M1 and M2 of piperidinyl piperidine derivatives as muscarinic antagonists” (Bioorg Med Chem Lett, 2007).

Assays:
[1] = molecular target: T1, Muscarinic acetylcholine receptor M1 (Homo sapiens, UniProt P11229); assay: Binding affinity to muscarinic M1 receptor
T1 sequence (P11229 whole entry): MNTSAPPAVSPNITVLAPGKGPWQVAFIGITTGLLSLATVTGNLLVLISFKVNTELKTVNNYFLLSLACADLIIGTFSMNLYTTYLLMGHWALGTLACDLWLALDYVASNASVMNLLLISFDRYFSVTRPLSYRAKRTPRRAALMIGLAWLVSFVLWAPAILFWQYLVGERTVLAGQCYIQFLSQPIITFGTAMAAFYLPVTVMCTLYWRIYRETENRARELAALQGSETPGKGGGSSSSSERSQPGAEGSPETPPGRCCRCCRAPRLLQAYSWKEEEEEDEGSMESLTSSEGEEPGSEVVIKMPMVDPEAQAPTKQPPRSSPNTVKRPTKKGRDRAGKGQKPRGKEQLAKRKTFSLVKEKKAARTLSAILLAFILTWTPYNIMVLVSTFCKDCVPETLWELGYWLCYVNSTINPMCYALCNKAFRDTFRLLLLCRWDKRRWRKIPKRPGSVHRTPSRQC

[2] = molecular target: Muscarinic acetylcholine receptors; M1 & M2 (Homo sapiens) (UniProt P11229+P08172); assay: Selectivity for muscarinic M1 receptor over muscarinic M2 receptor; type: protein assay

| Ki [1] | Ratio pKi [2] | Compound |
| --- | --- | --- |
| 10.5 nM | 1.54 | C=C(c1ccc(S(=O)(=O)c2ccc(OC)cc2)cc1)C1CCN(C2CCN(C(=O)OCC(C)C)CC2)CC1 |
|  | 1.95 | C=C(c1ccc(S(=O)(=O)c2ccc(OC)cc2)cc1)C1CCN(C2CCN(S(=O)(=O)CCC)CC2)CC1 |
| 10.8 nM | 1.38 | C=C(c1ccc(S(=O)(=O)c2ccc(OC)cc2)cc1)C1CCN(C2CCN(C(=O)OCc3ccccc3)CC2)CC1 |
| 37.4 nM | 2.02 | C=C(c1ccc(S(=O)(=O)c2ccc(OC)cc2)cc1)C1CCN(C2CCN(S(=O)(=O)c3ccccc3)CC2)CC1 |
| 95.7 nM | 1.5 | C=C(c1ccc(S(=O)(=O)c2ccc(OC)cc2)cc1)C1CCN(C2CCN(C(=O)Cc3ccccc3)CC2)CC1 |
|  | 0.903 | C=C(c1ccc(S(=O)(=O)c2ccc(OC)cc2)cc1)C1CCN(C2CCNCC2)CC1 |
|  | 2.04 | C=C(c1ccc(S(=O)(=O)c2ccc(OC)cc2)cc1)C1CCN(C2CCN(C(=O)CCC)CC2)CC1 |
| 33.3 nM | 1.36 | C=C(c1ccc(S(=O)(=O)c2ccc(OC)cc2)cc1)C1CCN(C2CCN(S(=O)(=O)Cc3ccccc3)CC2)CC1 |
| 57 nM | 2.18 | C=C(c1ccc(S(=O)(=O)c2ccc(OC)cc2)cc1)C1CCN(C2CCN(S(=O)(=O)CCCC)CC2)CC1 |
| 31.7 nM | 2.3 | C=C(c1ccc(S(=O)(=O)c2ccc(OC)cc2)cc1)C1CCN(C2CCN(S(=O)(=O)C(C)C)CC2)CC1 |
|  | 1.77 | C=C(c1ccc(S(=O)(=O)c2ccc(OC)cc2)cc1)C1CCN(C2CCN(C(=O)OCC)CC2)CC1 |
| 9.79 nM | 1.45 | C=C(c1ccc(S(=O)(=O)c2ccc(OC)cc2)cc1)C1CCN(C2CCN(C(=O)OCCCC)CC2)CC1 |
| 74.5 nM | 2.21 | C=C(c1ccc(S(=O)(=O)c2ccc(OC)cc2)cc1)C1CCN(C2CCN(S(=O)(=O)CC)CC2)CC1 |
| 40.7 nM | 1.84 | C=C(c1ccc(S(=O)(=O)c2ccc(OC)cc2)cc1)C1CCN(C2CCN(C(=O)OCCC)CC2)CC1 |
| 117 nM | 1.72 | C=C(c1ccc(S(=O)(=O)c2ccc(OC)cc2)cc1)C1CCN(C2CCN(C(=O)C(C)C)CC2)CC1 |
| 68.1 nM | 2.42 | C=C(c1ccc(S(=O)(=O)c2ccc(OC)cc2)cc1)C1CCN(C2CCN(C(=O)C3CC3)CC2)CC1 |
| 14.8 nM | 1.56 | C=C(c1ccc(S(=O)(=O)c2ccc(OC)cc2)cc1)C1CCN(C2CCN(C(=O)OC(C)C)CC2)CC1 |
| 60.8 nM | 1.2 | C=C(c1ccc(S(=O)(=O)c2ccc(OC)cc2)cc1)C1CCN(C2CCN(C(=O)CC)CC2)CC1 |
| 60.4 nM | 1.78 | C=C(c1ccc(S(=O)(=O)c2ccc(OC)cc2)cc1)C1CCN(C2CCN(C(=O)OC)CC2)CC1 |
